The nature of data set [1]: Solubility of Compound A fumarate at 25° C. It is filed as physicochemical. As to conditions: for solubility at 24 h: thermodynamic from solid. As to the method: (§1) Solubility of the fumarate in FaSSIF is 0.09 mg/mL and 0.21 mg/mL in FeSSIF. […] The maximum water uptake by DVS is less than 0.1% up to 95% RH at 25° C.
Data set [2] in a line: Hygroscopicity, water uptake by DVS. It is filed as physicochemical. As to the method: as §1
A short description of data set [3]: pHmax of the fumarate salt. It is filed as physicochemical. As to conditions: estimated. An excerpt:
The pHmax of the fumarate salt is estimated to be about 4.5. An increase in pH above 4.5 may potentially increase the risk of disproportionation.

A short description of data set [4]: Disproportionation (XRPD) of ASAP batches. The data set is classed as physicochemical. As to the method: The compatibility of Compound A fumarate was further evaluated in 21 days ASAP study involving three different formulation principles, wet granulation, dry blending and roller compaction. The drug load selected for study was 5% w/w, translating to 6.40% w/w of fumarate salt. The XRPD of the samples were evaluated at certain time intervals according to the Safety Protocol in Table 5.
The analysis was done for the samples stored at 21 days.

Data set [5] can be described thus: ADME/PK profile across tested species. It is filed as in vivo. The text has this:
(§2) GastroPlus modeling predicted dissolution and/or solubility limitations of the free form of Compound A at high doses.

The nature of data set [6]: Solubility and dissolution rate of the free form in biorelevant media. It is filed as physicochemical.
Excerpt: as §2

Where a name gives a salt, the structure may show the parent alone.

As for `FC(F)OC1=CC(C(F)(F)F)=CN2C[C@@]3(CCC(F)(F)c4c3ccnc4Cl)N=C12` [Compound A fumarate, (S)-1′-chloro-8-(difluoromethoxy)-8′,8′-difluoro-6-(trifluoromethyl)-7′,8′-dihydro-3H,6′H-spiro[imidazo[1,2-a]pyridine-2,5′-isoquinoline]], the solubility at 24 h was at least 2000 µg/mL in data set [1] (25 °C, aqueous buffer, pH 1.2 to pH 4.7); over 2000 µg/mL in data set [1] (acetate buffer pH 4.7, aqueous buffer, 25° C., pH 4.7 buffer (acetate)); over 2000 µg/mL in data set [1] (hydrochloric acid buffer pH 1.2, simulated gastric fluid, 25° C., pH 1.2 buffer (hydrochloric acid)); over 2000 µg/mL in data set [1] (hydrochloric acid buffer pH 2, simulated gastric fluid, 25° C., pH 2 buffer (hydrochloric acid)); over 100000 µg/mL in data set [1] (organic solvent or mixture, 25° C., Acetonitrile); over 100000 µg/mL in data set [1] (organic solvent or mixture, 25° C., Ethanol). The solubility at 24 h in data set [1] (phosphate buffer pH 6.8, aqueous buffer, 25° C., pH 6.8 buffer (phosphate)) was 30 µg/mL; in data set [1] (25° C., Water) it was over 2000 µg/mL; in data set [1] (25° C., pH 2.0 (SGF), simulated gastric fluid), over 2000 µg/mL; in data set [1] (25° C., pH 5.8 (FeSSIF), fed state simulating intestinal fluid), 210 µg/mL; in data set [1] (25° C., pH 6.5 (FaSSIF), fasted state simulating intestinal fluid) it was 90 µg/mL. The “Solid residues obtained after 24h equilibration” value in data set [1] (pH values of 5.4 and above) is “correspond to the free form”. For the same compound, the Hygroscopicity result in data set [2] was “non hygroscopic”. Further, the “Maximum water uptake by DVS” value in data set [2] (up to 95% RH at 25° C.) is given as “less than 0.1%”. In data set [3], the pHmax result was “about 4.5”. Moreover, the “Disproportionation result (XRPD)” value in data set [4] (50° C./75% RH - 21 days), in data set [4] (60° C./80% RH - 21 days), in data set [4] (70° C./41% RH - 21 days) and in data set [4] (80° C./50% RH - 21 days) was “No free form peak” throughout.

Turning to `FC(F)OC1=CC(C(F)(F)F)=CN2C[C@@]3(CCC(F)(F)c4c3ccnc4Cl)N=C12` [Compound A, (S)-1′-chloro-8-(difluoromethoxy)-8′,8′-difluoro-6-(trifluoromethyl)-7′,8′-dihydro-3H,6′H-spiro[imidazo[1,2-a]pyridine-2,5′-isoquinoline]], in data set [5], the Clearance result was “low to very low” and the Oral bioavailability result is “good”.

As for `FC(F)OC1=CC(C(F)(F)F)=CN2C[C@@]3(CCC(F)(F)c4c3ccnc4Cl)N=C12` [free form of Compound A, (S)-1′-chloro-8-(difluoromethoxy)-8′,8′-difluoro-6-(trifluoromethyl)-7′,8′-dihydro-3H,6′H-spiro[imidazo[1,2-a]pyridine-2,5′-isoquinoline]], in data set [5], the Clearance result is given as “low” and the Oral bioavailability result was “moderate to high”. The Solubility result in data set [6] is on record as “poor”. In data set [6] (in biorelevant media), the Dissolution rate entry was “slow”.

Values taken from patent US20250134820A1, “PHARMACEUTICAL COMPOSITIONS” (Novartis AG, priority 2021, published 2025).
